From patent US20090170067A1, “Simian tropic, recombinant human immunodeficiency-1 viruses” (The Rockefeller University, priority 2006, published 2009)

How the values were obtained:
stHIV/KB9 [1] = assay: Sensitivity to RT inhibitors, TZM luciferase infection assay; assay type: cell-based, simian-tropic HIV-1; details: TZM-bl indicator cells, FIG. 5A,B
SIVMAC239 [2] = assay: as above; assay type: cell-based, simian immunodeficiency virus; details: TZM-bl indicator cells, FIG. 5A,B
HIV-1NL4-3 [3] = assay: as above; assay type: cell-based; details: TZM-bl indicator cells, FIG. 5A,B
SIVMAC239 [4] = assay: Protease inhibitor virus inhibition assay (infected HUT-R5 cells, readout on TZM-bl); assay type: cell-based, simian immunodeficiency virus; details: infected HuT-CCR5 cells, FIG. 5C
HIV-1NL4-3 [5] = assay: as above; assay type: cell-based; details: infected HuT-CCR5 cells, FIG. 5C
stHIV/KB9 [6] = assay: as above; assay type: cell-based, simian-tropic HIV-1; details: infected HuT-CCR5 cells, FIG. 5C
[7] = target: rhesus macaque APOBEC3G (rhesus macaque); assay: cell-based or functional assay
Sequence of rhesus macaque APOBEC3G (rhesus macaque) (Q7YR24 whole entry): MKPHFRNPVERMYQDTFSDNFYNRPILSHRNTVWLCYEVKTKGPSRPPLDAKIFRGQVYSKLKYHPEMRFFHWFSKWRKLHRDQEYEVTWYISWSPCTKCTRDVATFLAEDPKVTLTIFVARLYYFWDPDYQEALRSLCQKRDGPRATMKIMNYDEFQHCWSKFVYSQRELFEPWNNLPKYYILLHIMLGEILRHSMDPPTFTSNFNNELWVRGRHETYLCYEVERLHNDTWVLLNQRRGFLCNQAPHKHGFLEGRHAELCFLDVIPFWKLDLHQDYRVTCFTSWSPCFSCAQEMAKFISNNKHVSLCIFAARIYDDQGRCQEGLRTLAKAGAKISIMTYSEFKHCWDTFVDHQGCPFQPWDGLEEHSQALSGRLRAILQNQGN

[8] = target: HIV-1 capsid (CA) protein of the HIV-1NL4-3-based viruses (HIV/KB9/GFP, HIV(SVif)/KB9/GFP) (HIV-1 (NL4-3)) (UniProt P12493); assay: cell-based or functional assay

Cc1cn([C@H]2C[C@H](N=[N+]=[N-])[C@@H](CO)O2)c(=O)[nH]c1=O [AZT]
inhibition of infection (luciferase, percentage of uninhibited level), result in words (stHIV/KB9 [1]): equally sensitive | inhibition of infection (luciferase, percentage of uninhibited level), result in words (SIVMAC239 [2]): equally sensitive | inhibition of infection (luciferase, percentage of uninhibited level), result in words (HIV-1NL4-3 [3]): equally sensitive

CC(C)CN(C[C@@H](O)[C@H](Cc1ccccc1)NC(=O)O[C@H]1CCOC1)S(=O)(=O)c1ccc(N)cc1 [amprenavir]
inhibition of infectious virus generation, result in words (SIVMAC239 [4]): ineffective or poorly inhibitory | inhibition of infectious virus generation, result in words (HIV-1NL4-3 [5]): effective inhibitors | inhibition of infectious virus generation, result in words (stHIV/KB9 [6]): potently inhibited

Cc1ccnc2c1NC(=O)c1cccnc1N2C1CC1 [nevirapine]
inhibition of infection (luciferase, percentage of uninhibited level), result in words (stHIV/KB9 [1]): potently inhibited | inhibition of infection (luciferase, percentage of uninhibited level), result in words (SIVMAC239 [2]): ineffective or poorly inhibitory | inhibition of infection (luciferase, percentage of uninhibited level), result in words (HIV-1NL4-3 [3]): effective inhibitors

HIV-1 Vif protein of the HIV-1NL4-3-based viruses (HIV/KB9/GFP, B3HIV(SCA)/KB9/GFP) (from UniProt P12504 1-192)
single-cycle infectivity on CEMx174 cells of virus made in 293T cells with or without rhAPOBEC3G [7]: 30 fold

SIVMAC Vif protein (SIVMAC239) as expressed by HIV(SVif)/KB9/GFP and B3HIV(SCA,SVif)/KB9/GFP
fold decrease in single-cycle infectivity on CEMx174 cells of virus made in 293T cells with or without rhAPOBEC3G [7]: < 2 fold

rhesus macaque TRIM5α (from UniProt Q0PF16 1-497)
single-cycle infectivity (GFP-positive cells) in CEMx174 cells expressing rhTRIM5α against unmodified CEMx174 cells [8]: 30 fold | single-cycle infectivity (GFP-positive cells) in rhesus macaque 221 cells against unmodified CEMx174 cells [8]: 70 fold
